Laboratory results from the CheMixHub viscosity set.

Assay: xn = mol fraction of the nth substance listed

CCCCCCCC + CCCCCCC
Settings	viscosity [mPa·s]
293.15 K, 101 kPa, x2 = 0.2	0.511
293.15 K, 101 kPa, x2 = 0.4	0.484
293.15 K, 101 kPa, x2 = 0.6	0.458
293.15 K, 101 kPa, x2 = 0.8	0.433
293.15 K, 101.33 kPa, x2 = 0.07168	0.531
293.15 K, 101.33 kPa, x2 = 0.1121	0.525
293.15 K, 101.33 kPa, x2 = 0.1909	0.514
293.15 K, 101.33 kPa, x2 = 0.2852	0.501
293.15 K, 101.33 kPa, x2 = 0.3891	0.487
293.15 K, 101.33 kPa, x2 = 0.4993	0.473
293.15 K, 101.33 kPa, x2 = 0.5985	0.46
293.15 K, 101.33 kPa, x2 = 0.6936	0.448
293.15 K, 101.33 kPa, x2 = 0.7797	0.437
293.15 K, 101.33 kPa, x2 = 0.8967	0.422
293.15 K, 101.33 kPa, x2 = 0.9584	0.414
298.15 K, 101.33 kPa, x2 = 0.1073	0.4942
298.15 K, 101.33 kPa, x2 = 0.2098	0.4774
298.15 K, 101.33 kPa, x2 = 0.406	0.4539
298.15 K, 101.33 kPa, x2 = 0.5089	0.4431
298.15 K, 101.33 kPa, x2 = 0.6081	0.4285
298.15 K, 101.33 kPa, x2 = 0.7052	0.4201
298.15 K, 101.33 kPa, x2 = 0.807	0.4103
298.15 K, 101.33 kPa, x2 = 0.9012	0.3958
303.15 K, 101.33 kPa, x2 = 0.1022	0.469
303.15 K, 101.33 kPa, x2 = 0.199	0.458
303.15 K, 101.33 kPa, x2 = 0.2324	0.454
303.15 K, 101.33 kPa, x2 = 0.3088	0.445
303.15 K, 101.33 kPa, x2 = 0.369	0.438
303.15 K, 101.33 kPa, x2 = 0.5069	0.423
303.15 K, 101.33 kPa, x2 = 0.5644	0.416
303.15 K, 101.33 kPa, x2 = 0.6459	0.407
303.15 K, 101.33 kPa, x2 = 0.7393	0.397
303.15 K, 101.33 kPa, x2 = 0.799	0.391
303.15 K, 101.33 kPa, x2 = 0.9128	0.379
312.75 K, 100 kPa, x1 = 0.2	0.3426
313.15 K, 101 kPa, x2 = 0.2	0.407
313.15 K, 101 kPa, x2 = 0.4	0.387
313.15 K, 101 kPa, x2 = 0.6	0.368
313.15 K, 101 kPa, x2 = 0.8	0.35
313.15 K, 101.33 kPa, x2 = 0.05003	0.426
313.15 K, 101.33 kPa, x2 = 0.09664	0.421
313.15 K, 101.33 kPa, x2 = 0.1716	0.413
313.15 K, 101.33 kPa, x2 = 0.212	0.409
313.15 K, 101.33 kPa, x2 = 0.2687	0.404
313.15 K, 101.33 kPa, x2 = 0.3937	0.392
313.15 K, 101.33 kPa, x2 = 0.4963	0.382
313.15 K, 101.33 kPa, x2 = 0.596	0.372
313.15 K, 101.33 kPa, x2 = 0.6942	0.363
313.15 K, 101.33 kPa, x2 = 0.7937	0.354
313.15 K, 101.33 kPa, x2 = 0.9085	0.343
313.15 K, 101.33 kPa, x2 = 0.9589	0.339

O=C(c1ccccc1)c1ccc2n1CCC2C(=O)[O-].[NH3+]C(CO)(CO)CO (configuration not stated) + O
viscosity [mPa·s], 101 kPa
Settings	293.15 K	298.15 K	303.15 K	308.15 K	313.15 K
x1 = 0.0002	1.037	0.9251	0.8319	0.7538	0.688
x1 = 0.0007	1.071	0.9598	0.8666	0.7882	0.723
x1 = 0.001	1.105	0.9936	0.9005	0.822	0.7569

CC=Cc1ccc(O)c(OC)c1 + CCCCCOC(C)=O
298.15 K, 101 kPa
Settings	viscosity [mPa·s]
x1 = 0.062	0.92
x1 = 0.119	1.06

CN(C)C=O + CCCCO
Settings	viscosity [mPa·s]
298.15 K, 101 kPa, x1 = 0.5035	1.381

CCCCCCCC + CC(C)O
viscosity [mPa·s]
Settings	293.15 K	298.15 K	303.15 K	308.15 K
101 kPa, x2 = 0.0569	–	0.515	–	0.446
101 kPa, x2 = 0.1093	–	0.518	–	0.45
101 kPa, x2 = 0.1441	–	0.524	–	0.451
101 kPa, x2 = 0.2343	–	0.542	–	0.466
101 kPa, x2 = 0.3228	–	0.568	–	0.486
101 kPa, x2 = 0.3517	–	0.579	–	0.497
101 kPa, x2 = 0.4196	–	0.611	–	0.523
101 kPa, x2 = 0.5016	–	0.665	–	0.561
101 kPa, x2 = 0.5603	–	0.717	–	0.601
101 kPa, x2 = 0.6122	–	0.773	–	0.643
101 kPa, x2 = 0.7012	–	0.9	–	0.732
101 kPa, x2 = 0.7937	–	1.088	–	0.877
101 kPa, x2 = 0.9122	–	1.496	–	1.177
101 kPa, x2 = 0.9475	–	1.68	–	1.315
101.32 kPa, x2 = 0.0518	0.539	0.507	0.476	–
101.32 kPa, x2 = 0.0896	0.542	0.51	0.479	–
101.32 kPa, x2 = 0.212	0.562	0.526	0.494	–
101.32 kPa, x2 = 0.282	0.58	0.542	0.507	–
101.32 kPa, x2 = 0.4103	0.644	0.596	0.552	–
101.32 kPa, x2 = 0.6027	0.83	0.752	0.685	–
101.32 kPa, x2 = 0.6988	0.985	0.883	0.795	–
101.32 kPa, x2 = 0.7988	1.225	1.088	0.967	–
101.32 kPa, x2 = 0.9007	1.624	1.429	1.25	–
101.32 kPa, x2 = 0.9496	1.961	1.69	1.482	–
